Measurements from US10548317B2, “Pesticidally active pyrazole derivatives” (SYNGENTA PARTICIPATIONS AG, priority 2015, dated 2020).

Key:
Format in all cases: in vivo
Euschistus heros = Euschistus heros (neotropical brown stink bug) soybean leaf test; details: 120 h, application rate of 200 ppm, soybean leaves, N2 nymphs, 5 days after infestation, read-out: effect in at least one of the two categories (mortality or growth inhibition)
Experimental: Euschistus heros (Neotropical Brown Stink Bug)
Soybean leaves on agar in 24-well microtiter plates were sprayed with aqueous test solutions prepared from 10'000 ppm DMSO stock solutions. After drying the leaves were infested with N2 nymphs. The samples were assessed for mortality and growth inhibition in comparison to untreated samples 5 days after infestation. The following compounds gave an effect of at least 80% in at least one of the two categories (mortality or growth inhibition) at an application rate of 200 ppm: 3, 4, 5, 6, 9, 10, 12, 14, 15, 16, 17, 18, 20, 24, 27, 28, 29, 31, 32, 33, 36, 37, 38, 42, 43, 45, 50, 52, 53, 54 and 55.

Spodoptera littoralis = Spodoptera littoralis (Egyptian cotton leaf worm) leaf disc spray test; details: foliar, 72 h, application rate of 200 ppm, cotton leaf discs, L1 larvae, 3 days after infestation, read-out: control (at least one of mortality, anti-feedant effect, growth inhibition)
Experimental: Spodoptera littoralis (Egyptian Cotton Leaf Worm)
Cotton leaf discs were placed on agar in 24-well microtiter plates and sprayed with aqueous test solutions prepared from 10'000 ppm DMSO stock solutions. After drying the leaf discs were infested with five L1 larvae. The samples were assessed for mortality, anti-feedant effect, and growth inhibition in comparison to untreated samples 3 days after infestation. Control of Spodoptera littoralis by a test sample is when at least one of mortality, anti-feedant effect, and growth inhibition is higher than the untreated sample.

Diabrotica balteata = Diabrotica balteata (corn root worm) maize sprout test; details: 96 h, application rate of 200 ppm, maize sprouts, L2 larvae, 4 days after infestation, read-out: effect in at least one of the two categories (mortality or growth inhibition)
Experimental: Diabrotica balteata, (Corn Root Worm)
Maize sprouts, placed on an agar layer in 24-well microtiter plates were treated with aqueous test solutions prepared from 10'000 ppm DMSO stock solutions by spraying. After drying, the plates were infested with L2 larvae (6 to 10 per well). The samples were assessed for mortality and growth inhibition in comparison to untreated samples 4 days after infestation. The following compounds gave an effect of at least 80% in at least one of the two categories (mortality or growth inhibition) at an application rate of 200 ppm: 1, 3, 4, 5, 6, 7, 8, 9, 10, 11, 12, 14, 15, 16, 17, 18, 19, 20, 21, 22, 23, 24, 25, 26, 27, 28, 29, 30, 31, 32, 33, 35, 36, 37, 38, 39, 40, 41, 42, 43, 44, 45, 48, 50, 51, 52, 53, 54 and 55.

Thrips tabaci = Thrips tabaci (onion thrips) sunflower leaf disc test; details: foliar, 144 h, application rate of 200 ppm, sunflower leaf discs, mixed ages, 6 days after infestation
Experimental: Thrips tabaci (Onion thrips):
(§1) Sunflower leaf discs were placed on agar in 24-well microtiter plates and sprayed with aqueous test solutions prepared from 10'000 ppm DMSO stock solutions. After drying the leaf discs were infested with a thrips population of mixed ages. The samples were assessed for mortality 6 days after infestation.

Tetranychus urticae = Tetranychus urticae (two-spotted spider mite) bean leaf disc test; details: foliar, 192 h, application rate of 200 ppm, bean leaf discs, mixed population (mobile stages), 8 days after infestation
Experimental: Tetranychus urticae (Two-Spotted Spider Mite):
as §1, with “Bean” for “Sunflower”, “discs” for “discs were placed”, “were” for “and”, “mite” for “thrips”, “on mixed population (mobile stages) 8” for “6”

Plutella xylostella = Plutella xylostella (diamond back moth) artificial diet test; details: 120 h, application rate of 200 ppm, L2 larvae, 5 days after infestation, read-out: effect in at least one of the two categories (mortality or growth inhibition)
Experimental: Plutella xylostella (Diamond Back Moth):
24-well microtiter plates with artificial diet were treated with aqueous test solutions prepared from 10'000 ppm DMSO stock solutions by pipetting. After drying, the plates were infested with L2 larvae (10 to 15 per well). The samples were assessed for mortality and growth inhibition in comparison to untreated samples 5 days after infestation. The following compounds gave an effect of at least 80% in at least one of the two categories (mortality or growth inhibition) at an application rate of 200 ppm: 1, 2, 3, 4, 5, 6, 7, 8, 9, 10, 11, 12, 13, 14, 15, 16, 17, 18, 19, 20, 21, 22, 23, 24, 25, 26, 27, 28, 29, 30, 31, 32, 33, 35, 36, 37, 38, 39, 40, 41, 42, 43, 44, 45, 46, 47, 48, 50, 51, 52, 53, 54 and 55.

C=C(Cl)CNC(=O)c1cc(-c2cnn(-c3c(C(F)(F)F)c(C(F)(F)C(F)(F)F)nn3C)c2)sc1Cl [Compound 31]
≥ 80%: percent effect (mortality or growth inhibition) at 200 ppm (Euschistus heros) | control (mortality, anti-feedant effect or growth inhibition) at 200 ppm (Spodoptera littoralis) | percent effect (mortality or growth inhibition) at 200 ppm (Diabrotica balteata) | mortality at 200 ppm (Thrips tabaci) | mortality at 200 ppm (Tetranychus urticae) | percent effect (mortality or growth inhibition) at 200 ppm (Plutella xylostella)

CC(C)NC(=O)c1cc(-c2cnn(-c3c(C(F)(F)F)c(C(F)(F)C(F)(F)F)nn3C)c2)sc1Cl [Compound 17]
≥ 80%: percent effect (mortality or growth inhibition) at 200 ppm (Euschistus heros) | control (mortality, anti-feedant effect or growth inhibition) at 200 ppm (Spodoptera littoralis) | percent effect (mortality or growth inhibition) at 200 ppm (Diabrotica balteata) | mortality at 200 ppm (Thrips tabaci) | mortality at 200 ppm (Tetranychus urticae) | percent effect (mortality or growth inhibition) at 200 ppm (Plutella xylostella)

Cn1nc(C(F)(F)C(F)(F)F)c(C(F)(F)F)c1-n1cc(-c2cc(C(=O)NC3CC3)c(Cl)s2)cn1 [Compound 3, 2-chloro-N-cyclopropyl-5-[1-[2-methyl-5-(1,1,2,2,2-pentafluoroethyl)-4-(trifluoromethyl)pyrazol-3-yl]pyrazol-4-yl]thiophene-3-carboxamide]
≥ 80%: percent effect (mortality or growth inhibition) at 200 ppm (Euschistus heros) | control (mortality, anti-feedant effect or growth inhibition) at 200 ppm (Spodoptera littoralis) | percent effect (mortality or growth inhibition) at 200 ppm (Diabrotica balteata) | mortality at 200 ppm (Thrips tabaci) | mortality at 200 ppm (Tetranychus urticae) | percent effect (mortality or growth inhibition) at 200 ppm (Plutella xylostella)

CN(C(=O)c1cc(-c2cnn(-c3c(C(F)(F)F)c(C(F)(F)C(F)(F)F)nn3C)c2)sc1Cl)C1(C#N)CC1 [Compound 9]
≥ 80%: percent effect (mortality or growth inhibition) at 200 ppm (Euschistus heros) | control (mortality, anti-feedant effect or growth inhibition) at 200 ppm (Spodoptera littoralis) | percent effect (mortality or growth inhibition) at 200 ppm (Diabrotica balteata) | mortality at 200 ppm (Thrips tabaci) | mortality at 200 ppm (Tetranychus urticae) | percent effect (mortality or growth inhibition) at 200 ppm (Plutella xylostella)

CCN(C(=O)c1cc(-c2cnn(-c3c(C(F)(F)F)c(C(F)(F)C(F)(F)F)nn3C)c2)sc1Cl)C1(C#N)CC1 [Compound 10]
≥ 80%: percent effect (mortality or growth inhibition) at 200 ppm (Euschistus heros) | control (mortality, anti-feedant effect or growth inhibition) at 200 ppm (Spodoptera littoralis) | percent effect (mortality or growth inhibition) at 200 ppm (Diabrotica balteata) | mortality at 200 ppm (Thrips tabaci) | mortality at 200 ppm (Tetranychus urticae) | percent effect (mortality or growth inhibition) at 200 ppm (Plutella xylostella)

CCNC(=O)c1cc(-c2cnn(-c3c(C(F)(F)F)c(C(F)(F)C(F)(F)F)nn3C)c2)sc1Cl [Compound 20]
≥ 80%: percent effect (mortality or growth inhibition) at 200 ppm (Euschistus heros) | control (mortality, anti-feedant effect or growth inhibition) at 200 ppm (Spodoptera littoralis) | percent effect (mortality or growth inhibition) at 200 ppm (Diabrotica balteata) | mortality at 200 ppm (Thrips tabaci) | mortality at 200 ppm (Tetranychus urticae) | percent effect (mortality or growth inhibition) at 200 ppm (Plutella xylostella)

Cn1nc(C(F)(F)C(F)(F)F)c(C(F)(F)F)c1-n1cc(-c2cc(C(=O)N[C@H]3C[C@@H]3C(F)(F)F)c(Cl)s2)cn1 [Compound 33]
≥ 80%: percent effect (mortality or growth inhibition) at 200 ppm (Euschistus heros) | control (mortality, anti-feedant effect or growth inhibition) at 200 ppm (Spodoptera littoralis) | percent effect (mortality or growth inhibition) at 200 ppm (Diabrotica balteata) | mortality at 200 ppm (Thrips tabaci) | mortality at 200 ppm (Tetranychus urticae) | percent effect (mortality or growth inhibition) at 200 ppm (Plutella xylostella)

Cn1nc(C(F)(F)C(F)(F)F)c(C(F)(F)F)c1-n1cc(-n2cc(C(=O)NC3CC3)c(C(F)(F)F)n2)cn1 [Compound 12]
≥ 80%: percent effect (mortality or growth inhibition) at 200 ppm (Euschistus heros) | control (mortality, anti-feedant effect or growth inhibition) at 200 ppm (Spodoptera littoralis) | percent effect (mortality or growth inhibition) at 200 ppm (Diabrotica balteata) | mortality at 200 ppm (Thrips tabaci) | mortality at 200 ppm (Tetranychus urticae) | percent effect (mortality or growth inhibition) at 200 ppm (Plutella xylostella)

Cn1nc(C(F)(F)C(F)(F)F)c(C(F)(F)F)c1-n1cc(-c2cc(C(=O)NC3(C(N)=S)CC3)c(Cl)s2)cn1 [Compound 6, N-(1-carbamothioylcyclopropyl)-2-chloro-5-[1-[2-methyl-5-(1,1,2,2,2-pentafluoroethyl)-4-(trifluoromethyl)pyrazol-3-yl]pyrazol-4-yl]thiophene-3-carboxamide]
≥ 80%: percent effect (mortality or growth inhibition) at 200 ppm (Euschistus heros) | control (mortality, anti-feedant effect or growth inhibition) at 200 ppm (Spodoptera littoralis) | percent effect (mortality or growth inhibition) at 200 ppm (Diabrotica balteata) | mortality at 200 ppm (Thrips tabaci) | mortality at 200 ppm (Tetranychus urticae) | percent effect (mortality or growth inhibition) at 200 ppm (Plutella xylostella)

Cc1sc(-c2cnn(-c3c(C(F)(F)F)c(C(F)(F)C(F)(F)F)nn3C)c2)cc1C(=O)NC1(C#N)CC1 [Compound 42]
≥ 80%: percent effect (mortality or growth inhibition) at 200 ppm (Euschistus heros) | control (mortality, anti-feedant effect or growth inhibition) at 200 ppm (Spodoptera littoralis) | percent effect (mortality or growth inhibition) at 200 ppm (Diabrotica balteata) | mortality at 200 ppm (Thrips tabaci) | mortality at 200 ppm (Tetranychus urticae) | percent effect (mortality or growth inhibition) at 200 ppm (Plutella xylostella)

Cn1nc(C(F)(F)C(F)(F)F)c(C(F)(F)F)c1-n1cc(-c2cc(C(=O)NCC3CC3)c(Cl)s2)cn1 [Compound 27]
≥ 80%: percent effect (mortality or growth inhibition) at 200 ppm (Euschistus heros) | control (mortality, anti-feedant effect or growth inhibition) at 200 ppm (Spodoptera littoralis) | percent effect (mortality or growth inhibition) at 200 ppm (Diabrotica balteata) | mortality at 200 ppm (Thrips tabaci) | mortality at 200 ppm (Tetranychus urticae) | percent effect (mortality or growth inhibition) at 200 ppm (Plutella xylostella)

C=CCNC(=O)c1cc(-c2cnn(-c3c(C(F)(F)F)c(C(F)(F)C(F)(F)F)nn3C)c2)sc1Cl [Compound 29]
≥ 80%: percent effect (mortality or growth inhibition) at 200 ppm (Euschistus heros) | control (mortality, anti-feedant effect or growth inhibition) at 200 ppm (Spodoptera littoralis) | percent effect (mortality or growth inhibition) at 200 ppm (Diabrotica balteata) | mortality at 200 ppm (Thrips tabaci) | mortality at 200 ppm (Tetranychus urticae) | percent effect (mortality or growth inhibition) at 200 ppm (Plutella xylostella)

Cc1sc(-c2cnn(-c3c(C(F)(F)F)c(C(F)(F)C(F)(F)F)nn3C)c2)cc1C(=O)NC1CC1 [Compound 43]
≥ 80%: percent effect (mortality or growth inhibition) at 200 ppm (Euschistus heros) | control (mortality, anti-feedant effect or growth inhibition) at 200 ppm (Spodoptera littoralis) | percent effect (mortality or growth inhibition) at 200 ppm (Diabrotica balteata) | mortality at 200 ppm (Thrips tabaci) | mortality at 200 ppm (Tetranychus urticae) | percent effect (mortality or growth inhibition) at 200 ppm (Plutella xylostella)

Cn1nc(C(F)(F)C(F)(F)F)c(OC(F)F)c1-n1cc(-c2cc(C(=O)NC3(C#N)CC3)c(Cl)s2)cn1 [Compound 38]
≥ 80%: percent effect (mortality or growth inhibition) at 200 ppm (Euschistus heros) | control (mortality, anti-feedant effect or growth inhibition) at 200 ppm (Spodoptera littoralis) | percent effect (mortality or growth inhibition) at 200 ppm (Diabrotica balteata) | mortality at 200 ppm (Thrips tabaci) | mortality at 200 ppm (Tetranychus urticae) | percent effect (mortality or growth inhibition) at 200 ppm (Plutella xylostella)

Cn1nc(C(F)(F)C(F)(F)F)c(OC(F)F)c1-n1cc(-c2cc(C(=O)NC3CC3)c(Cl)s2)cn1 [Compound 37]
≥ 80%: percent effect (mortality or growth inhibition) at 200 ppm (Euschistus heros) | control (mortality, anti-feedant effect or growth inhibition) at 200 ppm (Spodoptera littoralis) | percent effect (mortality or growth inhibition) at 200 ppm (Diabrotica balteata) | mortality at 200 ppm (Thrips tabaci) | mortality at 200 ppm (Tetranychus urticae) | percent effect (mortality or growth inhibition) at 200 ppm (Plutella xylostella)

Cn1nc(C(F)(F)C(F)(F)F)c(C(F)(F)F)c1-n1cc(-c2cc(C(=O)NC3(C#N)CC3)c(Cl)s2)cn1 [Compound 4, 2-chloro-N-(1-cyanocyclopropyl)-5-[1-[2-methyl-5-(1,1,2,2,2-pentafluoroethyl)-4-(trifluoromethyl)pyrazol-3-yl]pyrazol-4-yl]thiophene-3-carboxamide]
≥ 80%: percent effect (mortality or growth inhibition) at 200 ppm (Euschistus heros) | control (mortality, anti-feedant effect or growth inhibition) at 200 ppm (Spodoptera littoralis) | percent effect (mortality or growth inhibition) at 200 ppm (Diabrotica balteata) | mortality at 200 ppm (Thrips tabaci) | mortality at 200 ppm (Tetranychus urticae) | percent effect (mortality or growth inhibition) at 200 ppm (Plutella xylostella)
